Values of other authors as cited in US7393522B2, “Physiologically balanced, ionized, acidic solution and methodology for use in wound healing” (NovaBay Pharmaceuticals, Inc., priority 2000, dated 2008).

Conditions: pH 5.0 to pH 8.0

For OCl [HOCl, hypochlorous acid], the “pH of maximum decomposition rate” value is given as 6.89.
